{"source": "paper PMC6704710", "about": "“Preclinical evaluation of 3D185, a novel potent inhibitor of FGFR1/2/3 and CSF-1R, in FGFR-dependent and macrophage-dominant cancer models” (Journal of Experimental & Clinical Cancer Research : CR, 2019)", "assay_in_all_cases": "Eurofins kinase panel", "type_in_all_cases": "biochemical", "conditions_in_all_cases": "read-out: Inhibition rate (%)", "key": {"IRAK1(h)": {"target": "T1, IRAK1(h) (Homo sapiens, UniProt P51617)", "T1 construct": "purchased Eurofins (KinaseProfiler)", "T1 sequence (P51617 whole entry)": "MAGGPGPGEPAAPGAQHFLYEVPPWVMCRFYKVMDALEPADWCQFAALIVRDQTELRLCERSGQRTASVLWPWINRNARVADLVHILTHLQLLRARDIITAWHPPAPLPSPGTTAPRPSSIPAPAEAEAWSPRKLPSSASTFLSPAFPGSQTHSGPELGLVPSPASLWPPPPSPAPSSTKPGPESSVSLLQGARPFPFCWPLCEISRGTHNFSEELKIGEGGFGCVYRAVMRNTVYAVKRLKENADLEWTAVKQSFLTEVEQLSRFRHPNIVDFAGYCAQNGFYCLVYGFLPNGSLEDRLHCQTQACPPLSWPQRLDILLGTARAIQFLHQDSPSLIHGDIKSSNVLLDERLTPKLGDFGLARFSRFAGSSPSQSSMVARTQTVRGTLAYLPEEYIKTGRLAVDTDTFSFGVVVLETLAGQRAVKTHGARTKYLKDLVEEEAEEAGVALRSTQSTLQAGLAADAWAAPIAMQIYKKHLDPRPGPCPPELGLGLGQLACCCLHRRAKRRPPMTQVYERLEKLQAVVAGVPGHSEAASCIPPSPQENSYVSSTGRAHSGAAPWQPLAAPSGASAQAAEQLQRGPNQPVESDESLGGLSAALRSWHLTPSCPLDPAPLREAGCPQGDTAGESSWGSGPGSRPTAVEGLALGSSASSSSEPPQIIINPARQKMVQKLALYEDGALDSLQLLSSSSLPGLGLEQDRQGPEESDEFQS"}, "ROCK-I(h)": {"target": "T2, ROCK-I(h) (Homo sapiens, UniProt Q13464)", "T2 construct": "purchased Eurofins (KinaseProfiler)", "T2 sequence (Q13464 whole entry)": "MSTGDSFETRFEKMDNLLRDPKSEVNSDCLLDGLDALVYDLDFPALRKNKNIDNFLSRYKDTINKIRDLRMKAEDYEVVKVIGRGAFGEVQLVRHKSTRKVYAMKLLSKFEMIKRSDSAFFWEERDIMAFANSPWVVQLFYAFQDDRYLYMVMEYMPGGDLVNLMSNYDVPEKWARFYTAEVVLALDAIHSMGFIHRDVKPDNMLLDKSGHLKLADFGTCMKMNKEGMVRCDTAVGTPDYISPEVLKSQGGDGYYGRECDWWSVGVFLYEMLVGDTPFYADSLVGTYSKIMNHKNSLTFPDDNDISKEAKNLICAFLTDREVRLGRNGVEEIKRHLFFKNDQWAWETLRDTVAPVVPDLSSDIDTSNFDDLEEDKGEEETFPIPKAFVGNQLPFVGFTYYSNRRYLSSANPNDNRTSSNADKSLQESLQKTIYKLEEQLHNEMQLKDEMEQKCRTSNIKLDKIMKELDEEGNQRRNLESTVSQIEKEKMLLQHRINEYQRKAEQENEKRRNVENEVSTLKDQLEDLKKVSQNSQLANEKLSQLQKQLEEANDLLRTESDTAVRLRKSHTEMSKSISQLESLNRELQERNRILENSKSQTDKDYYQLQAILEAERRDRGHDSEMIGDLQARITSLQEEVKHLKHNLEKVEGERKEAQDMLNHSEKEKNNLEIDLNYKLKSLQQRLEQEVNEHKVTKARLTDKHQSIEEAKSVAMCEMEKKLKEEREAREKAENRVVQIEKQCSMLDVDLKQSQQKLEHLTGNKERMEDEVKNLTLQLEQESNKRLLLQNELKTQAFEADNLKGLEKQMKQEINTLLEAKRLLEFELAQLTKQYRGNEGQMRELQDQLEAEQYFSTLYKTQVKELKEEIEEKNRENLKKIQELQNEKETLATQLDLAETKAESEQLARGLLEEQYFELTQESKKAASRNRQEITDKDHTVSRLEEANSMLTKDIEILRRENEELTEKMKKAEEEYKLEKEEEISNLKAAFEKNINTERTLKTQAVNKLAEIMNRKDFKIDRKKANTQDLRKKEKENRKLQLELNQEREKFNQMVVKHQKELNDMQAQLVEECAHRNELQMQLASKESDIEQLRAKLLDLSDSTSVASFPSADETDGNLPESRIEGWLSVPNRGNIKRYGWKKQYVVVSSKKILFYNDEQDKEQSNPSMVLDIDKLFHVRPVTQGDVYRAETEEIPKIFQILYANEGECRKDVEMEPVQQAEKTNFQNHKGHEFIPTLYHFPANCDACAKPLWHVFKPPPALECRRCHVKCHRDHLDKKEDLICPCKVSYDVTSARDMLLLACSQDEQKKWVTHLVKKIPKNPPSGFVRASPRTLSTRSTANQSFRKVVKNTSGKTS"}, "DNA-PK(h)": {"target": "T3, DNA-PK(h) (Homo sapiens, UniProt P78527)", "T3 construct": "purchased Eurofins (KinaseProfiler)"}, "PIP4K2α(h)": {"target": "T4, PIP4K2α(h) (Homo sapiens, UniProt P48426)", "T4 construct": "purchased Eurofins (KinaseProfiler)", "T4 sequence (P48426 1-406)": "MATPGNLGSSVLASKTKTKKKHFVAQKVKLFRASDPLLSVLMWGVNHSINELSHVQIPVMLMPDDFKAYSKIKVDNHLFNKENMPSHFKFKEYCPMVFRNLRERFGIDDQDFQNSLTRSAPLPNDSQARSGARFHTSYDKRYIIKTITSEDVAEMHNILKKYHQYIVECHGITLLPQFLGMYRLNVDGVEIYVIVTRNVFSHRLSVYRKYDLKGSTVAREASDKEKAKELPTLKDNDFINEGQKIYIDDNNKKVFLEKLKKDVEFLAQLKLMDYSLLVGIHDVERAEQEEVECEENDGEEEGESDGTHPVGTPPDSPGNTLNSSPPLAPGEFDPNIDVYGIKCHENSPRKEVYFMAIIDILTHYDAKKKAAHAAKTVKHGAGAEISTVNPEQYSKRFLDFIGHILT"}, "[1]": {"target": "T5, PI3 Kinase (p110β/p85α)(h) (Homo sapiens, UniProt P42338)", "T5 construct": "purchased Eurofins (KinaseProfiler)", "T5 sequence (P42338 whole entry)": "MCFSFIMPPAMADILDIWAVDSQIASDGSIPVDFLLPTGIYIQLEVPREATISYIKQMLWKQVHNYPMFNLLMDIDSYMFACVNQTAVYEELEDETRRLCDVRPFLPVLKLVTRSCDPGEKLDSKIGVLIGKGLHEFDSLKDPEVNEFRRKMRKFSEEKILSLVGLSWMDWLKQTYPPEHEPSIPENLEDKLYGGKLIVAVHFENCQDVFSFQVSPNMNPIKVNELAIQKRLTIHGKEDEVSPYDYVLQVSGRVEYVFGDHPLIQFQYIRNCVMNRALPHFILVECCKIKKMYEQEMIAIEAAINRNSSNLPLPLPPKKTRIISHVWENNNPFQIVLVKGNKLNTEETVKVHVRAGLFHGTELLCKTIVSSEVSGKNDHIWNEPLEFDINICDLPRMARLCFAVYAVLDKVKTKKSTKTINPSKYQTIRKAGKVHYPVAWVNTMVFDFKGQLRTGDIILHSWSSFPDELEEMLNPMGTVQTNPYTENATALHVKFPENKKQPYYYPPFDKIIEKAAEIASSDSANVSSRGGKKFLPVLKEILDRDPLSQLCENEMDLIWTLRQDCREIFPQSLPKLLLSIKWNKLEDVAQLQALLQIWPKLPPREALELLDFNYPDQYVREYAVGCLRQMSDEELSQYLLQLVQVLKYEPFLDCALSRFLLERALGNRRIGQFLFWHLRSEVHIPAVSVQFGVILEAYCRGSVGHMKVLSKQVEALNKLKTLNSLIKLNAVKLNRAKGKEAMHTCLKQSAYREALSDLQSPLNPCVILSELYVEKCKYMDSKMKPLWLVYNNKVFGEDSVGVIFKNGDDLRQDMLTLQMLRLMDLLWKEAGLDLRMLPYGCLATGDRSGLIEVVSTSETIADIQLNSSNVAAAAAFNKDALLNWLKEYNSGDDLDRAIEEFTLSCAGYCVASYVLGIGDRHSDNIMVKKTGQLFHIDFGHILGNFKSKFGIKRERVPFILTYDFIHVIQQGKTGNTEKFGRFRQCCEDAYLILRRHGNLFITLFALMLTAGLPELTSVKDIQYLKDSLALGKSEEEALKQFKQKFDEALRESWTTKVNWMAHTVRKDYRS", "T5 sequence (P27986 whole entry partner)": "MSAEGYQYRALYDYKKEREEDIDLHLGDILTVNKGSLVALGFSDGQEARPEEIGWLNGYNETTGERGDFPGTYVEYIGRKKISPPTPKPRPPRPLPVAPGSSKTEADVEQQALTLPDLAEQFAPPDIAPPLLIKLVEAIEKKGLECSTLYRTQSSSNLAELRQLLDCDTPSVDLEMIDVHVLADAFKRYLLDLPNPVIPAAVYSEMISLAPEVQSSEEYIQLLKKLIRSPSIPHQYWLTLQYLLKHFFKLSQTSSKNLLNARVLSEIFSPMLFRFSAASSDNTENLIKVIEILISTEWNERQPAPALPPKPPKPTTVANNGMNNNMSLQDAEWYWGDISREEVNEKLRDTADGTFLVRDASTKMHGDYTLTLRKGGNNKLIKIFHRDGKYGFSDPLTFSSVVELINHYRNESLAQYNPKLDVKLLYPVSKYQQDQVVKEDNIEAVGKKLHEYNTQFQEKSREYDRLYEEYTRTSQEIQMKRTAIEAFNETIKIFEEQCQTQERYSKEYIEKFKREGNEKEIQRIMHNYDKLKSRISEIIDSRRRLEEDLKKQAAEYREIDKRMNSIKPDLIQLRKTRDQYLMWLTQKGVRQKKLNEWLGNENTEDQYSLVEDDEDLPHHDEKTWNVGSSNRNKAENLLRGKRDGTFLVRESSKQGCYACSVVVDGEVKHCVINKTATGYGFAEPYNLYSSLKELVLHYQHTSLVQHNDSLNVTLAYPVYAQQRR"}, "CK1δ(h)": {"target": "T6, CK1δ(h) (Homo sapiens, UniProt P48730)", "T6 construct": "purchased Eurofins (KinaseProfiler)", "T6 sequence (P48730 whole entry)": "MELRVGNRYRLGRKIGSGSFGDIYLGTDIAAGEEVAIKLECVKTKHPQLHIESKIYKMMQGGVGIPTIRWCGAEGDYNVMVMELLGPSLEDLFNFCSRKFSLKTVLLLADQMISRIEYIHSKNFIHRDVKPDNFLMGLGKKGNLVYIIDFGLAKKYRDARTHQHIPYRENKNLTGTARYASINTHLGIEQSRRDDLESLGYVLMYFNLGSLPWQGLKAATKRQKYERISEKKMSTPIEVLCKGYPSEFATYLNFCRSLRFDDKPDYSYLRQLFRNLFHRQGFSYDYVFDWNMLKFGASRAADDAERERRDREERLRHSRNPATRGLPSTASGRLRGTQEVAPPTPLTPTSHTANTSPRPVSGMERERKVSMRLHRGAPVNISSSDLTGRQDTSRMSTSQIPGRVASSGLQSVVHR"}, "NEK1(h)": {"target": "T7, NEK1(h) (Homo sapiens, UniProt Q96PY6)", "T7 construct": "purchased Eurofins (KinaseProfiler)", "T7 sequence (Q96PY6 1-1258)": "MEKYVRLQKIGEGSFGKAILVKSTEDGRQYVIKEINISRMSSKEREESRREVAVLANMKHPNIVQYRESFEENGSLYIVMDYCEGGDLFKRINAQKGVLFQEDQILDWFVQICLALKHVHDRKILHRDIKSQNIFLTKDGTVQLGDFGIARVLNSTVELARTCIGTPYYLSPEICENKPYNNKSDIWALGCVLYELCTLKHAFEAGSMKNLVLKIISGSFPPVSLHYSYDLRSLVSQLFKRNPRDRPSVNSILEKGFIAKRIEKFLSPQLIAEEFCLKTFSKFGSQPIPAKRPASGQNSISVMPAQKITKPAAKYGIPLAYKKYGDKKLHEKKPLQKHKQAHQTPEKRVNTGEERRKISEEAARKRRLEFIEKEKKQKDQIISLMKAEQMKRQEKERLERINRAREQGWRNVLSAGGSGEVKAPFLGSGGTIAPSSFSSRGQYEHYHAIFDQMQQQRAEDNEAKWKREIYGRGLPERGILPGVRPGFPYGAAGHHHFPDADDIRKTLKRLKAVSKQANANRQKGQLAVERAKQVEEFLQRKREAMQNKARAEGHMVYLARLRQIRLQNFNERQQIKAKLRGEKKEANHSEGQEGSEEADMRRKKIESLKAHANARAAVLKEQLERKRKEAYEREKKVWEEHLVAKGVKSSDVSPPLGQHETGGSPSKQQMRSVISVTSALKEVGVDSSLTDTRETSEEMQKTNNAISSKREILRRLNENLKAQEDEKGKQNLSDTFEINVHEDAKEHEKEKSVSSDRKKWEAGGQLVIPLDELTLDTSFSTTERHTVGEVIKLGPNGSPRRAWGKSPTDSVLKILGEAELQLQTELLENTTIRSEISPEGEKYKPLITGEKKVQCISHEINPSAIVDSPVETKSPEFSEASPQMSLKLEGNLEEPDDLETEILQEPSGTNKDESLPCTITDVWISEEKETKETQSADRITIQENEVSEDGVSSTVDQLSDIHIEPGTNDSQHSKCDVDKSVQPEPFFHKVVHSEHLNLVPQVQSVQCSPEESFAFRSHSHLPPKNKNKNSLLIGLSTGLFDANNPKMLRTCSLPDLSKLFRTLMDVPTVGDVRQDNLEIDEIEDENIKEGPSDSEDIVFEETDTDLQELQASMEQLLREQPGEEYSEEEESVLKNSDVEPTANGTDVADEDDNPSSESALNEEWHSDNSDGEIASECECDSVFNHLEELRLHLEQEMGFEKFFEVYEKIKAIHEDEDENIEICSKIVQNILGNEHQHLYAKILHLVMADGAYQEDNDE"}}, "data": [{"smiles": "COc1cc(OC)c(Cl)c(-c2ccc3c(NC(=O)c4ccc(N5CCNC(C)(C)C5)cc4)n[nH]c3n2)c1Cl", "note": "[3D185]", "values": [{"measurement": "inhibition at 0.01 µM", "setting": "IRAK1(h); 10 nM", "result": 4, "unit": "%"}, {"measurement": "inhibition at 0.1 µM", "setting": "IRAK1(h); 100 nM", "result": 0, "unit": "%"}, {"measurement": "inhibition at 1 µM", "setting": "IRAK1(h); 1000 nM", "result": 19, "unit": "%"}, {"measurement": "inhibition at 0.01 µM", "setting": "ROCK-I(h); 10 nM", "result": -2, "unit": "%"}, {"measurement": "inhibition at 0.1 µM", "setting": "ROCK-I(h); 100 nM", "result": -12, "unit": "%"}, {"measurement": "inhibition at 1 µM", "setting": "ROCK-I(h); 1000 nM", "result": -3, "unit": "%"}, {"measurement": "inhibition at 0.01 µM", "setting": "DNA-PK(h); 10 nM", "result": 5, "unit": "%"}, {"measurement": "inhibition at 0.1 µM", "setting": "DNA-PK(h); 100 nM", "result": 2, "unit": "%"}, {"measurement": "inhibition at 1 µM", "setting": "DNA-PK(h); 1000 nM", "result": 0, "unit": "%"}, {"measurement": "inhibition at 0.01 µM", "setting": "PIP4K2α(h); 10 nM", "result": 1, "unit": "%"}, {"measurement": "inhibition at 0.1 µM", "setting": "PIP4K2α(h); 100 nM", "result": -2, "unit": "%"}, {"measurement": "inhibition at 1 µM", "setting": "PIP4K2α(h); 1000 nM", "result": 4, "unit": "%"}, {"measurement": "inhibition at 0.01 µM", "setting": "[1]; 10 nM", "result": 0, "unit": "%"}, {"measurement": "inhibition at 0.1 µM", "setting": "[1]; 100 nM", "result": 1, "unit": "%"}, {"measurement": "inhibition at 1 µM", "setting": "[1]; 1000 nM", "result": 4, "unit": "%"}, {"measurement": "inhibition at 0.01 µM", "setting": "CK1δ(h); 10 nM", "result": -10, "unit": "%"}, {"measurement": "inhibition at 0.1 µM", "setting": "CK1δ(h); 100 nM", "result": 0, "unit": "%"}, {"measurement": "inhibition at 1 µM", "setting": "CK1δ(h); 1000 nM", "result": 6, "unit": "%"}, {"measurement": "inhibition at 0.01 µM", "setting": "NEK1(h); 10 nM", "result": 5, "unit": "%"}, {"measurement": "inhibition at 0.1 µM", "setting": "NEK1(h); 100 nM", "result": 3, "unit": "%"}, {"measurement": "inhibition at 1 µM", "setting": "NEK1(h); 1000 nM", "result": 11, "unit": "%"}]}]}
